# Experimental data taken from publication PMC6868039, “Maltose Processing and Not β-Amylase Activity Curtails Hydrolytic Starch Degradation in the CAM Orchid Phalaenopsis” (Frontiers in Plant Science, 2019).
# Molecular target: T1, PEPC (phosphoenolpyruvate carboxylase)
# T1 construct: native enzyme in desalted (Sephadex G-25) crude leaf extract, not purified; phosphorylation state varies over the day
# Assay: NADH oxidation at […] nm, coupled to endogenous MDH in desalted leaf extract
# Type: biochemical, Phalaenopsis hybrid cultivar
# Conditions: daytime leaves (mean of fluctuating values); 2.5 mM PEP, 10 mM NaHCO3, 5 mM MgCl2, pH 7.5, 25 °C; crude desalted extract
smiles,measurement,value
O=C(O)C[C@H](O)C(=O)O [malic acid],Ki,6 ± 3 mM
